# Laboratory results: patent publication US20050222054A1, “Combination comprising a CDK inhibitor and doxorubicin” (Cyclacel Limited, priority 2002, published 2005)
# Entries after “also recorded” stand apart in the source; their conditions may differ.
# Tests used:
# [1] = test system: POMC (Rb deficient) tumours in POMC-Cre/POMC-Luc;Rb-flox/flox compound mutant mice; conditions: doxorubicin 5 mg/kg intravenously once a week for four weeks; in the combination, roscovitine 500 mg/kg orally twice daily for two days before each doxorubicin
# Source text: A conditional mouse model for retinoblastoma-dependent sporadic cancer was generated (Vooijs et al; Cancer Res 2002 Mar 15; 62(6): 1862-7; 2002) which permits non-invasive monitoring of pituitary tumour development in live animals via in vivo bioluminescence imaging of luciferase expression. This mouse model permits the longitudinal monitoring of tumour onset, progression and response to therapeutic agents that specifically target the retinoblastoma pathway. By way of summary, a retinoblastoma conditional KO line was crossed with a POMC-Cre/POMC-Luciferase transgenic line to generate POMC-Cre/POMC-Luc;Rb-flox/flox compound mutant mice. These mice develop POMC (Rb deficient) tumours (Vooijs et al, ibid) and as illustrated in FIG. 3.
# In this study, doxorubicin was administered once a week for four weeks (5 mg/kg; intravenously).
# SK-UT-1 cells = assay: Flow cytometry DNA cell cycle analysis; assay type: cell-based, human; conditions: 48 h treatment
# [2] = test system: osteosarcoma line SaOS-2 (pRb-deficient); conditions: pRb-deficient SaOS-2, in combination with doxorubicin; not seen in SaOS-2 transfected with Rb; cited from earlier work
SMILES,tumour response (bioluminescence) [1],"% of total, G1 (SK-UT-1 cells)","% of total, G2M (SK-UT-1 cells)","% of total, Go (SK-UT-1 cells)","% of total, S (SK-UT-1 cells)",sensitisation to the cytotoxic effects of doxorubicin [2]
COc1cccc2c1C(=O)c1c(O)c3c(c(O)c1C2=O)C[C@@](O)(C(=O)CO)C[C@@H]3O[C@H]1C[C@H](N)[C@H](O)[C@H](C)O1 [Doxo],delay tumorigenesis; also recorded: temporarily halts tumour progression,9%,43%,22%,18%,–
"CC[C@H](CO)Nc1nc(NCc2ccccc2)c2ncn(C(C)C)c2n1 [Roscovitine, 6-benzylamino-2-[(R)-1-ethyl-2-hydroxyethylamino]-9-isopropylpurine]",–,36%,19%,23%,16%,–
CN1CC[C@H](c2c(O)cc(O)c3c(=O)cc(-c4ccccc4Cl)oc23)[C@H](O)C1 [flavopiridol],–,–,–,–,–,significantly sensitised
